We go through 30 compounds from US20130096067A1, “DROSOPHILA TUMOR STEM CELL MODEL AND USES THEREOF” (priority 2011, published 2013).

The structures appear in SMILES notation. Read-outs that look alike come from different tables or passages of the source.

For this assay, the system named is Raf-1^gof intestinal tumors.
Setting [1] is: screen of 480 ICCB compounds in vials, compounds fed to flies with one-day old Raf-1^gof tumors, assessed three days later, esg-Gal4 luciferase.
The mark [2] stands for this setting: screen of 480 ICCB compounds in vials, compounds fed to flies with one-day old Raf-1^gof tumors, assessed three days later, esg-Gal4 luciferase, averaged from multiple wells.
Where [3] appears, read: ICCB compounds fed in vials to flies with one-day old Raf-1^gof tumors, assessed three days later.
Setting [4] is: ICCB compounds fed in vials to flies with one-day old Raf-1^gof tumors, assessed three days later, averaged from multiple wells.
Wherever Fold (luciferase activity relative to DMSO controls) is given: test concentration or dose not given here.
Wherever Fold (luciferase activity, fold difference relative to DMSO controls) is given: test concentration or dose not given here.
Wherever Log2 (fold) (luciferase activity, log2 of the fold difference relative to DMSO controls) is given: test concentration or dose not given here.
Wherever Log2 (fold) of luciferase activity relative to DMSO controls is given: test concentration or dose not given here.

Regarding `CCCCC[C@H](O)/C=C/[C@H]1C(=O)C[C@H](O)[C@@H]1C/C=C\CCCC(=O)O` [PROSTAGLANDIN D2], under setting [1], the “Log2 (fold) (luciferase activity, log2 of the fold difference relative to DMSO controls)” value is recorded as −0.413. Also, under setting [2], the “Fold (luciferase activity, fold difference relative to DMSO controls)” value was found to be 0.751.
In the same order, the values of `CCCCC[C@H](O)/C=C/[C@H]1[C@H](O)CC(=O)[C@@H]1CCCCCCC(=O)O` [PROSTAGLANDIN E1] are −0.561 and 0.678.
`CCCCC[C@H](O)/C=C/[C@H]1[C@H](O)CC(=O)[C@@H]1C/C=C\CCCC(=O)O` [PROSTAGLANDIN E2]: under setting [1], the “Log2 (fold) (luciferase activity, log2 of the fold difference relative to DMSO controls)” value was −0.223. In addition, under setting [2], the “Fold (luciferase activity, fold difference relative to DMSO controls)” value stood at 0.857.
In the case of `CCCCC[C@H](O)/C=C/[C@@H]1[C@@H](CCCCCCC(=O)O)[C@@H](O)C[C@H]1O` [PROSTAGLANDIN F1a], the “Log2 (fold) of luciferase activity relative to DMSO controls” value under setting [3] is −0.208. The “Fold (luciferase activity relative to DMSO controls)” value under setting [4] amounted to 0.866 fold.
For `CCCCC[C@H](O)/C=C/[C@@H]1[C@@H](C/C=C\CCCC(=O)O)[C@@H](O)C[C@H]1O` [PROSTAGLANDIN F2a], the “Log2 (fold) (luciferase activity, log2 of the fold difference relative to DMSO controls)” value under setting [1] is recorded as −0.450. Under setting [2], the “Fold (luciferase activity, fold difference relative to DMSO controls)” value came out at 0.732.
For `CCCCC[C@H](O)/C=C/[C@@H]1[C@H]2C/C(=C/CCCC(=O)[O-])O[C@H]2C[C@H]1O.[Na+]` [PROSTAGLANDIN I2 Na], in that order: −0.244 and 0.844.
For `CC(COc1ccccc1)N(CCCl)Cc1ccccc1` (stereo not shown) [Phenoxybenzamine], in that order: −0.600 and 0.660.
As to `Oc1cc(O)cc(/C=C/c2ccc(O)c(O)c2)c1` [Piceatannol, reference compound], the Fold (Table 3 summary of hits, Screen ICCB, luciferase relative to DMSO, fed three consecutive days in vials) stood at 0.493 fold. The “Log2 (fold) (luciferase activity, log2 of the fold difference relative to DMSO controls)” value under setting [1] is on record as −1.020. In addition, under setting [2], the “Fold (luciferase activity, fold difference relative to DMSO controls)” value is given as 0.493.
For `CC(=O)[C@H]1[C@H](C#N)C[C@H]2[C@@H]3CC=C4C[C@@H](O)CC[C@]4(C)[C@H]3CC[C@@]21C` [Pregnenolone 16alpha carbonitrile], under setting [1], the “Log2 (fold) (luciferase activity, log2 of the fold difference relative to DMSO controls)” value was −0.492. Also, the “Fold (luciferase activity, fold difference relative to DMSO controls)” value under setting [2] is recorded as 0.711.
In the same order, the values of `C=C[C@H]1C[N@@]2CC[C@H]1C[C@@H]2[C@@H](O)c1ccnc2ccc(OC)cc12` [QUINIDINE] are −0.351 and 0.784.
Take `C=C[C@H]1C[N@@]2CC[C@H]1C[C@H]2[C@H](O)c1ccnc2ccc(OC)cc12` [QUININE]: the “Log2 (fold) of luciferase activity relative to DMSO controls” value under setting [3] was −0.201. The “Fold (luciferase activity relative to DMSO controls)” value under setting [4] was determined as 0.870 fold.
In the same order, the values of `CC[N+](CC)(CC)CC(=O)Nc1c(C)cccc1C` [QX-314] are 0.146 and 1.107 fold.
Regarding `CC1=C(/C=C/C(C)=C/C=C/C(C)=C/C(=O)O)C(C)(C)CCC1` [RETINOIC ACID, ALL TRANS], under setting [3], the “Log2 (fold) of luciferase activity relative to DMSO controls” value is recorded as −0.162. For the same compound, the “Fold (luciferase activity relative to DMSO controls)” value under setting [4] amounted to 0.894 fold.
In the case of `CCCCCC(O)c1cccc(OCc2ccc3ccccc3n2)c1` (stereo not shown) [REV-5901], the “Log2 (fold) (luciferase activity, log2 of the fold difference relative to DMSO controls)” value under setting [1] was −0.282. Further, under setting [2], the “Fold (luciferase activity, fold difference relative to DMSO controls)” value is reported as 0.822.
For `N#C/C(=C\c1cc(Cl)cc(Cl)c1)c1cccnc1` [RG-14620], under setting [1], the “Log2 (fold) (luciferase activity, log2 of the fold difference relative to DMSO controls)” value was −0.483. In addition, the “Fold (luciferase activity, fold difference relative to DMSO controls)” value under setting [2] turned out to be 0.715.
In the same order, the values of `O=C(NCCCCCCNC(=O)ON=C1CCCCC1)ON=C1CCCCC1` [RHC-80267] are −0.279 and 0.824.
As for `CCCCCCCCCCCCCCCC(=O)C1=C(O)C(CO)OC1=O` (stereo not shown) [RK-682], the “Log2 (fold) (luciferase activity, log2 of the fold difference relative to DMSO controls)” value under setting [1] was −0.492. Further, the “Fold (luciferase activity, fold difference relative to DMSO controls)” value under setting [2] is listed as 0.711.
For `CC(=O)OCOC(c1cc([N+](=O)[O-])ccc1Oc1ccc(Br)cc1)P(=O)(OCOC(C)=O)OCOC(C)=O` (stereo not shown) [RWJ-60475-(AM)3], in that order: −0.217 and 0.861.
For `COc1ccc(C2CNC(=O)C2)cc1OC1CCCC1` (stereo not shown) [Rolipram], in that order: −0.414 and 0.750.
Consider `CC(=O)c1c(O)c(C)c(O)c(Cc2c(O)c3c(c(C(=O)/C=C/c4ccccc4)c2O)OC(C)(C)C=C3)c1O` [Rottlerin], for which the “Log2 (fold) (luciferase activity, log2 of the fold difference relative to DMSO controls)” value under setting [1] is −0.865. For the same compound, the “Fold (luciferase activity, fold difference relative to DMSO controls)” value under setting [2] was found to be 0.549.
In the same order, the values of `Oc1ccc(-c2nc(-c3ccc(F)cc3)c(-c3ccncc3)[nH]2)cc1` [SB 202190] are −0.222 and 0.857.
Consider `C[S+]([O-])c1ccc(-c2nc(-c3ccc(F)cc3)c(-c3ccncc3)[nH]2)cc1` (stereo not shown) [SB 203580], for which, where the note is “in vivo”, the “Fold (luciferase activity relative to DMSO controls)” value is 1.036 fold and the “Log2 (fold) of luciferase activity relative to DMSO controls” value turned out to be 0.051.
`NC(=O)c1ccc(-c2nc(-c3ccccn3)c(-c3ccc4c(c3)OCO4)[nH]2)cc1` [SB-431542]: under setting [3], the “Log2 (fold) of luciferase activity relative to DMSO controls” value stood at 0.068. The “Fold (luciferase activity relative to DMSO controls)” value under setting [4] is on record as 1.048 fold.
For `N#Cc1cc2c(OCC(O)CN3CCN(C(c4ccccc4)c4ccccc4)CC3)cccc2[nH]1` (stereo not shown) [SDZ-201106], where the note is “in vivo”, the “Fold (luciferase activity, fold difference relative to DMSO controls)” value worked out at 0.804 and the “Log2 (fold) (luciferase activity, log2 of the fold difference relative to DMSO controls)” value was −0.315.
`COc1ccc(CCCOC(Cn2ccnc2)c2ccc(OC)cc2)cc1` (stereo not shown) [SKF-96365]: the “Log2 (fold) of luciferase activity relative to DMSO controls” value under setting [3] was determined as 0.134. The “Fold (luciferase activity relative to DMSO controls)” value under setting [4] is recorded as 1.097 fold.
On to `Oc1c2ccccc2c2c3c(cccc13)N=N2` [SP-600125], for which, under setting [3], the “Log2 (fold) of luciferase activity relative to DMSO controls” value was −0.100. Under setting [4], the “Fold (luciferase activity relative to DMSO controls)” value stood at 0.933 fold.
For `CCCCCCCCCCCCC/C=C/[C@@H](O)[C@@H](N)CO` [SPHINGOSINE], in that order: −0.030 and 0.980 fold.
For the compound `Nc1ncnc2c1ncn2C1CCCO1` (stereo not shown) [SQ22536], the “Log2 (fold) (luciferase activity, log2 of the fold difference relative to DMSO controls)” value under setting [1] is −0.270. For the same compound, the “Fold (luciferase activity, fold difference relative to DMSO controls)” value under setting [2] worked out at 0.829.
For the compound `O=C(O)CCC/C=C\C[C@@H]1[C@H](CNNC(=O)Nc2ccccc2)[C@H]2CC[C@@H]1O2` [SQ-29548], the “Log2 (fold) (luciferase activity, log2 of the fold difference relative to DMSO controls)” value under setting [1] was −0.606. The “Fold (luciferase activity, fold difference relative to DMSO controls)” value under setting [2] worked out at 0.657.
For `CN(C)c1ccc(/C=C2\C(=O)Nc3ccccc32)cc1` [SU-4312], under setting [3], the “Log2 (fold) of luciferase activity relative to DMSO controls” value came out at 0.118. Further, the “Fold (luciferase activity relative to DMSO controls)” value under setting [4] stood at 1.085 fold.
